From ChEMBL document CHEMBL4665629, “An optimised series of substituted N-phenylpyrrolamides as DNA gyrase B inhibitors” (Eur J Med Chem, 2019)
Values after ≈ are worked out from the molar mass of the structure shown.

Assays:
Escherichia coli [1] = test: Antibacterial activity against efflux pump d effect ive Escherichia coli JW5503 harbouring tolC mutant assessed as bacterial growth inhibition at 50 uM incubated for 24 hrs by CLSI protocol based broth microdilution assay relative to control; type: functional
Escherichia coli [2] = test: Antibacterial activity against outer membrane impaired Escherichia coli JD17464 harboring lpxC mutant assessed as bacterial growth inhibition at 50 uM incubated for 24 hrs by CLSI protocol based broth microdilution assay relative to control; type: functional
Pseudomonas aeruginosa = test: Antibacterial activity against Pseudomonas aeruginosa ATCC 27853 assessed as bacterial growth inhibition at 50 uM incubated for 24 hrs by CLSI protocol based broth microdilution assay relative to control; type: functional
Staphylococcus aureus = test: Antibacterial activity against Staphylococcus aureus ATCC 29213 assessed as bacterial growth inhibition at 50 uM incubated for 24 hrs by CLSI protocol based broth microdilution assay relative to control; type: functional
Klebsiella pneumoniae = test: Antibacterial activity against Klebsiella pneumoniae ATCC 700603 assessed as bacterial growth inhibition at 50 uM incubated for 24 hrs by CLSI protocol based broth microdilution assay relative to control; type: functional
Escherichia coli [3] = test: Antibacterial activity against Escherichia coli ATCC 25922 assessed as bacterial growth inhibition at 50 uM incubated for 24 hrs by CLSI protocol based broth microdilution assay relative to control; type: functional
Enterococcus faecium [4] = test: Antibacterial activity against Enterococcus faecium ATCC 35667 assessed as bacterial growth inhibition at 50 uM incubated for 24 hrs by CLSI protocol based broth microdilution assay relative to control; type: functional
Klebsiella aerogenes = test: Antibacterial activity against Enterobacter aerogenes ATCC 13408 assessed as bacterial growth inhibition at 50 uM incubated for 24 hrs by CLSI protocol based broth microdilution assay relative to control; type: functional
Acinetobacter baumannii = test: Antibacterial activity against Acinetobacter baumannii ATCC 19606 assessed as bacterial growth inhibition at 50 uM incubated for 24 hrs by CLSI protocol based broth microdilution assay relative to control; type: functional; settings: ATCC 19606 = CIP 70.34 = JCM 6841
Topoisomerase IV = Topoisomerase IV (Staphylococcus aureus, UniProt P0C1S7+P0C1U9); test: Inhibition of Staphylococcus aureus DNA topoisomerase 4 using biotinylated oligonucleotide as substrate incubated for 30 mins in presence of ATP by fluorescence-based microplate reader assay; type: protein-complex assay
[5] = Inhibition of Escherichia coli DNA topoisomerase 4 using biotinylated oligonucleotide as substrate incubated for 30 mins in presence of ATP by fluorescence-based microplate reader assay
DNA gyrase [6] = biological target: DNA gyrase (Staphylococcus aureus, UniProt P0A0K8+P20831); test: Inhibition of Staphylococcus aureus DNA gyrase using biotinylated oligonucleotide as substrate incubated for 30 mins in presence of ATP by fluorescence-based microplate reader assay; type: protein-complex assay
DNA gyrase [7] = biological target: DNA gyrase (Escherichia coli, UniProt P0AES4+P0AES6); test: Inhibition of Escherichia coli DNA gyrase using biotinylated oligonucleotide as substrate incubated for 30 mins in presence of ATP by fluorescence-based microplate reader assay; type: protein-complex assay
Enterococcus faecium [8] = test: Antibacterial activity against Enterococcus faecium ATCC 35667 assessed as minimum inhibitory concentration required for >=90% inhibition of bacterial growth by CLSI protocol based broth microdilution assay; type: functional
Enterococcus faecalis [9] = test: Antibacterial activity against Enterococcus faecalis ATCC 29212 assessed as bacterial growth inhibition at 50 uM incubated for 24 hrs by CLSI protocol based broth microdilution assay relative to control; type: functional
Enterococcus faecalis [10] = test: Antibacterial activity against Enterococcus faecalis ATCC 29212 assessed as minimum inhibitory concentration required for >=90% inhibition of bacterial growth by CLSI protocol based broth microdilution assay; type: functional
[11] = biological target: DNA gyrase (Escherichia coli) (UniProt P0AES6+P0AES4); test: Inhibition of Escherichia coli DNA gyrase assessed as residual activity at 1 uM using biotinylated oligonucleotide as substrate incubated for 30 mins in presence of ATP by fluorescence-based microplate reader assay relative to control; type: protein-complex assay
Escherichia coli [12] = test: Antibacterial activity against efflux pump d effect ive Escherichia coli JW5503 harbouring tolC mutant assessed as minimum inhibitory concentration required for >=90% inhibition of bacterial growth by CLSI protocol based broth microdilution assay; type: functional
[13] = biological target: DNA gyrase (Staphylococcus aureus) (UniProt P0A0K8+P20831); test: Inhibition of Staphylococcus aureus DNA gyrase assessed as residual activity at 1 uM using biotinylated oligonucleotide as substrate incubated for 30 mins in presence of ATP by fluorescence-based microplate reader assay relative to control; type: protein-complex assay
[14] = Cytotoxicity against HUVEC assessed as reduction in cell proliferation at 50 uM after 72 hrs by MTS assay relative to control; type: cell-based; settings: human, HUVEC cells, read-out: Activity
[15] = Cytotoxicity against human HepG2 cells assessed as reduction in cell proliferation at 50 uM after 72 hrs by MTS assay relative to control; type: cell-based; settings: read-out: Activity
[16] = biological target: Topoisomerase IV (Staphylococcus aureus) (UniProt P0C1U9+P0C1S7); test: Inhibition of Staphylococcus aureus DNA topoisomerase 4 assessed as residual activity at 1 uM using biotinylated oligonucleotide as substrate incubated for 30 mins in presence of ATP by fluorescence-based microplate reader assay relative to control; type: protein-complex assay
[17] = Inhibition of Escherichia coli DNA topoisomerase 4 assessed as residual activity at 1 uM using biotinylated oligonucleotide as substrate incubated for 30 mins in presence of ATP by fluorescence-based microplate reader assay relative to control

Chain of DNA gyrase (Staphylococcus aureus, UniProt P0A0K8+P20831) (P0A0K8 whole entry): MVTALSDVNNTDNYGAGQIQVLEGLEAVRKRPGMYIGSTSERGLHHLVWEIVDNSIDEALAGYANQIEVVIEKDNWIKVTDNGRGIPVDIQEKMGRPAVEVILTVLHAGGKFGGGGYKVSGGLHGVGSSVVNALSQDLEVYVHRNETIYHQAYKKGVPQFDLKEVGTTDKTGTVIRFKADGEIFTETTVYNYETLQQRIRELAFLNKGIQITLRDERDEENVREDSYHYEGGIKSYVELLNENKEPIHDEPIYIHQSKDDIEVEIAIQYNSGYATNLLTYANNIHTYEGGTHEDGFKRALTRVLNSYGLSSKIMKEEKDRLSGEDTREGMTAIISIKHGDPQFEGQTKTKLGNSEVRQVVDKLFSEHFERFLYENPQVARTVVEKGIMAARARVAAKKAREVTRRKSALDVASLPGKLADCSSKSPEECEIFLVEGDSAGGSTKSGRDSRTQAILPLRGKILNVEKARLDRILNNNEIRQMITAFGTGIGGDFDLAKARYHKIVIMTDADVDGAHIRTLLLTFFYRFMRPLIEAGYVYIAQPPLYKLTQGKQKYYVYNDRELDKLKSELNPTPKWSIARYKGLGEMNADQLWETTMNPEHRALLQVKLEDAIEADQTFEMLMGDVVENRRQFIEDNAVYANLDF
Chain of DNA gyrase (Staphylococcus aureus, UniProt P0A0K8+P20831) (P20831 whole entry): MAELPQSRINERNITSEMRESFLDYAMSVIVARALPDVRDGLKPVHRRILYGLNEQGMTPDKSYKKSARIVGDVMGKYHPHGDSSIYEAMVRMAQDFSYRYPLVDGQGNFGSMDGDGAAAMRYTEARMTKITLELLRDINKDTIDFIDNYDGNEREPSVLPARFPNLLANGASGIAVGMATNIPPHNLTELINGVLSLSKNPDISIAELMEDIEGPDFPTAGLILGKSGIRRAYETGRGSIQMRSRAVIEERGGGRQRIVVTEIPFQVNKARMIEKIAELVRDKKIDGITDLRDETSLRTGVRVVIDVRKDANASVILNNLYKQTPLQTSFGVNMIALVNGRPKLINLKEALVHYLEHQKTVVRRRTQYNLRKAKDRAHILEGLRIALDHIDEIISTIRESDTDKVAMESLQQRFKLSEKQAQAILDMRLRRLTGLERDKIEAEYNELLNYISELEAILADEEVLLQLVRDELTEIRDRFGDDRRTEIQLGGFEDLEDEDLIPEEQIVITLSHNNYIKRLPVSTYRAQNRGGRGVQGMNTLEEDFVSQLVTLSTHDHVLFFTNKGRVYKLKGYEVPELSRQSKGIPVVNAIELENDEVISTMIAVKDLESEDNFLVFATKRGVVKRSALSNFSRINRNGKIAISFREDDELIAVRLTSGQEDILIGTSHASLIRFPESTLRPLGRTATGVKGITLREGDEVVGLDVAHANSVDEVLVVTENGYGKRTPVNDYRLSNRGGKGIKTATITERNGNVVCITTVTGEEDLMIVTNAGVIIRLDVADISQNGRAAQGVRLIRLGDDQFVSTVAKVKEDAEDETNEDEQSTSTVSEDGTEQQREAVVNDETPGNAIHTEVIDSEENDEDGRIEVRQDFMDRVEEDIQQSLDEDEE
Chain of Topoisomerase IV (P0C1U9 whole entry): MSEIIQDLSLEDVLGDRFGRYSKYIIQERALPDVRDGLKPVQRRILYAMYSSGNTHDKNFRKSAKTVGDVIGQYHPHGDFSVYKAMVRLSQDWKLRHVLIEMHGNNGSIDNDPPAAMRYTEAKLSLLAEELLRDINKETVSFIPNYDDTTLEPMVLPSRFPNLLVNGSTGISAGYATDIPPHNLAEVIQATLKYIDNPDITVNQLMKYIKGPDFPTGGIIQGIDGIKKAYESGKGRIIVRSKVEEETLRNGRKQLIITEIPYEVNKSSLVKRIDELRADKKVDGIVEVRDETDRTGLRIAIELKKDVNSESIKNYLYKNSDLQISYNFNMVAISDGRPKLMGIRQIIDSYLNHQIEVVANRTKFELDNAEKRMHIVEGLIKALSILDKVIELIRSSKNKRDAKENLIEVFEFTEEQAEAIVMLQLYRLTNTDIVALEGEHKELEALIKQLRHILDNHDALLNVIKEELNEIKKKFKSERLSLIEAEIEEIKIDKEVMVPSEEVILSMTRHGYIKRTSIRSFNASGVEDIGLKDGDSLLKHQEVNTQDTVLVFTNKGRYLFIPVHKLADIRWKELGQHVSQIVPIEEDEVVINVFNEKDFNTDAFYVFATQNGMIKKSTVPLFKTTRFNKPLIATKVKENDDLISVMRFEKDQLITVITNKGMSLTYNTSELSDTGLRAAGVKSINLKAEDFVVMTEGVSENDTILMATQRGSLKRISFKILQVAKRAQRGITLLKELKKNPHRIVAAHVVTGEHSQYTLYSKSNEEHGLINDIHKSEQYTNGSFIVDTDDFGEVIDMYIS
Chain of Topoisomerase IV (P0C1S7 whole entry): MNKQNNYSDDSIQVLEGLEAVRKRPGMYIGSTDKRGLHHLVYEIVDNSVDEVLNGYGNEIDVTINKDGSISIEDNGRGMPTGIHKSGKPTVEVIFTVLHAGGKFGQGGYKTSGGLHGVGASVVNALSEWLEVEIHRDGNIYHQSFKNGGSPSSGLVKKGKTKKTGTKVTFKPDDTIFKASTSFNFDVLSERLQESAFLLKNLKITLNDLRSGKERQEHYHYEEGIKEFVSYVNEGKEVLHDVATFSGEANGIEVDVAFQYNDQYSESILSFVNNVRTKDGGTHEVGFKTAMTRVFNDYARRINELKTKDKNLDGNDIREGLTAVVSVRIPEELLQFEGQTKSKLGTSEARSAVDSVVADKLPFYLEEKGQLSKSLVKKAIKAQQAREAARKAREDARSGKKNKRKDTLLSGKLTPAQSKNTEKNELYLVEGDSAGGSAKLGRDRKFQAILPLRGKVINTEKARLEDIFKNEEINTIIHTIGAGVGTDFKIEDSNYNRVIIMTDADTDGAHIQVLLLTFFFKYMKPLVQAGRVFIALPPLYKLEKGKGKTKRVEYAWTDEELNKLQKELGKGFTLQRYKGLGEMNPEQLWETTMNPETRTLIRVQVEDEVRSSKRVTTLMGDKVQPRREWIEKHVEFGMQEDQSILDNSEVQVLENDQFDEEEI
Chain of DNA gyrase (Staphylococcus aureus) (P0A0K8 2-644 limits assumed): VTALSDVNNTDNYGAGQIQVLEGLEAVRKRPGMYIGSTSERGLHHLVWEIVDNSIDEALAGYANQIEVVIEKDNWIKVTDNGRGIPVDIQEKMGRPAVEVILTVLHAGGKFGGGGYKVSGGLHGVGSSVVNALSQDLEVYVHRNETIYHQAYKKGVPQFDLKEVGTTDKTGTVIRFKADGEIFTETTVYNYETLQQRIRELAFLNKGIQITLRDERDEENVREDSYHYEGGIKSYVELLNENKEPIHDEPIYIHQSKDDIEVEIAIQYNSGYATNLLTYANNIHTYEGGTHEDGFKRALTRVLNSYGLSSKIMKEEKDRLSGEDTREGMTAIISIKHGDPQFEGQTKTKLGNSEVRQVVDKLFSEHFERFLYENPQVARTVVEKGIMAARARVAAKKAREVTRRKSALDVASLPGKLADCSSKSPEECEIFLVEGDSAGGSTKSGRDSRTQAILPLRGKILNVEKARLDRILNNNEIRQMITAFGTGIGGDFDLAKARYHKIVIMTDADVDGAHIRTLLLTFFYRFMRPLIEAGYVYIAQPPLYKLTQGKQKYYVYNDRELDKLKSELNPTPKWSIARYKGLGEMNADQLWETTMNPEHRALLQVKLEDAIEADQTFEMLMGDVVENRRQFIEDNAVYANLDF
Chain of DNA gyrase (Staphylococcus aureus) (P20831 whole entry partner): as the sequence (P20831 whole entry) above

Structure (SMILES)	inhibition at 50 µM (Escherichia coli [1]) [%]	inhibition at 50 µM (Escherichia coli [2]) [%]	inhibition at 50 µM (Pseudomonas aeruginosa) [%]	inhibition at 50 µM (Staphylococcus aureus) [%]	inhibition at 50 µM (Klebsiella pneumoniae) [%]	inhibition at 50 µM (Escherichia coli [3]) [%]	inhibition at 50 µM (Enterococcus faecium [4]) [%]	inhibition at 50 µM (Klebsiella aerogenes) [%]	inhibition at 50 µM (Acinetobacter baumannii) [%]	IC50 (Topoisomerase IV) [nM]	IC50 [5] [nM]	IC50 (DNA gyrase [6]) [nM]	IC50 (DNA gyrase [7]) [nM]	MIC (Escherichia coli [12]) [µM]	other results
Cc1[nH]c(C(=O)Nc2ccc(C(=O)NCC(=O)O)cc2OC2CCN(C(=O)OC(C)(C)C)CC2)c(Cl)c1Cl	-5	-2	-3	-10	-9	9	-1	-8	-12	7400	10000	1010	86	–	–
CC(=O)NC[C@H]1CN(c2ccc(N3CCOCC3)c(F)c2)C(=O)O1 [LINEZOLID]	–	–	–	–	–	–	–	–	–	–	–	–	–	–	MIC (Enterococcus faecium [8]): 11.9 µM (≈ 4 µg/mL)
Cc1[nH]c(C(=O)Nc2ccc(C(=O)N[C@H](C)C(=O)NN)cc2OC(C)C)c(Cl)c1Cl	38	31	-2	46	14	21	49	16	25	–	–	–	–	–	inhibition at 50 µM (Enterococcus faecalis [9]): 85%; MIC (Enterococcus faecalis [10]): 12.5 µM (≈ 5.7 µg/mL); Activity [11]: 89%
COC(=O)[C@H](C)NC(=O)c1ccc(NC(=O)c2[nH]c(C)c(Cl)c2Cl)c(OC2CCNCC2)c1	99	24	-1	27	0	14	7	-4	21	3700	18000	1600	40	6.25 (≈ 3.11 µg/mL)	–
Cc1[nH]c(C(=O)Nc2ccc(C(=O)N[C@H](C)C(=O)O)cc2OC2CCNCC2)c(Cl)c1Cl	35	14	-3	-1	5	1	3	-3	5	960	15000	–	6.9	–	Activity [13]: 31%
Cc1[nH]c(C(=O)Nc2ccc3[nH]c(C(=O)O)cc3c2)c(Cl)c1Cl	99	2	-2	6	-2	2	20	6	3	–	–	–	98	12.5 (≈ 4.4 µg/mL)	inhibition at 50 µM (Enterococcus faecalis [9]): 54%
Cc1[nH]c(C(=O)Nc2ccc(C(=O)NCC(=O)O)cc2O[C@H]2CCNC2)c(Cl)c1Cl	-1	18	-28	-6	-3	11	14	-11	-1	4300	16000	290	31	–	inhibition at 72 h, 50 µM [14]: 130%; inhibition at 72 h, 50 µM [15]: 46%
Cc1[nH]c(C(=O)Nc2ccc(C(=O)NCC#N)cc2)c(Cl)c1Cl	102	-8	30	4	4	0	-17	1	0	–	–	–	410	12.5 (≈ 4.39 µg/mL)	inhibition at 50 µM (Enterococcus faecalis [9]): 92%; MIC (Enterococcus faecalis [10]): 25 µM (≈ 8.78 µg/mL)
COC(=O)[C@@H](C)NC(=O)c1ccc(NC(=O)c2[nH]c(C)c(Cl)c2Cl)c(OC2CCNCC2)c1	97	21	12	8	-7	8	4	-2	17	–	–	–	48	6.25 (≈ 3.11 µg/mL)	Activity [16]: 94%; Activity [17]: 89%; Activity [13]: 49%
Cc1[nH]c(C(=O)Nc2ccc(C(=O)NCC(=O)O)cc2OC2CCNCC2)c(Cl)c1Cl	37	9	15	3	5	-2	-1	4	1	3700	7200	960	17	–	–
Cc1[nH]c(C(=O)Nc2ccc(C(=O)N[C@@H](C)C(=O)O)cc2OC2CCNCC2)c(Cl)c1Cl	9	12	9	-11	5	7	-10	-2	2	690	9100	99	9.9	–	–
COC(=O)CNC(=O)c1ccc(NC(=O)c2[nH]c(C)c(Cl)c2Cl)c(O[C@H]2CCNC2)c1	88	26	4	5	-5	4	13	-3	2	–	–	950	74	25 (≈ 11.7 µg/mL)	Activity [16]: 94%; Activity [17]: 90%
CCOC(=O)c1cn(CC)c2cc(NC(=O)c3[nH]c(C)c(Cl)c3Cl)ccc2c1=O	11	-2	-3	-3	9	12	37	5	3	–	–	–	53	–	inhibition at 72 h, 50 µM [14]: 88%; inhibition at 72 h, 50 µM [15]: 90%; inhibition at 50 µM (Enterococcus faecalis [9]): -7%
COC(=O)[C@H](C)NC(=O)c1ccc(NC(=O)c2[nH]c(C)c(Cl)c2Cl)c(OC2CCN(C(=O)OC(C)(C)C)CC2)c1	61	43	27	35	3	18	73	14	23	–	–	–	–	–	MIC (Enterococcus faecium [8]): > 25 µM; Activity [11]: 83%
Cc1[nH]c(C(=O)Nc2ccc(C(=O)N[C@@H](C)C(=O)O)cc2OC2CCN(C(=O)OC(C)(C)C)CC2)c(Cl)c1Cl	1	19	19	-23	-19	2	67	-5	0	830	–	–	80	–	MIC (Enterococcus faecium [8]): > 25 µM; Activity [17]: 88%; Activity [13]: 26%
